Measurements from ChEMBL document CHEMBL1135216, “New 2-(1-adamantylcarbonyl)pyridine and 1-acetyladamantane thiosemicarbazones-thiocarbonohydrazones: cell growth inhibitory, antiviral and antimicrobial activity evaluation” (Bioorg Med Chem Lett, 2002).
Converted amounts (≈) assume the structure as drawn.

What was measured:
[1] = tested on: E6SM; experiment: Tested for antiviral activity against thymidine kinase-deficient (TK-HSV-2G) virus in E6SM cell line(human embryonic skin-muscle fibroblasts); format: functional
[2] = tested on: E6SM; experiment: Tested for antiviral activity against herpes simplex virus type 1(KOS) in E6SM cell line(human embryonic skin-muscle fibroblasts); format: functional
[3] = tested on: E6SM; experiment: Tested for antiviral activity against VSV-virus in human embryonic skin muscle fibroblasts; format: functional; conditions: Muscle tissue
[4] = tested on: HEL; experiment: Tested for cytotoxic activity in human embryonic lung fibroblast (HEL); format: functional
[5] = tested on: E6SM; experiment: Tested for cytotoxic activity in human embryonic skin muscle fibroblast (E6SM); format: functional; conditions: Muscle tissue
[6] = tested on: E6SM; experiment: Tested for antiviral activity against vaccinia virus in human embryonic skin muscle fibroblast; format: functional; conditions: Muscle tissue
[7] = tested on: HEL; experiment: Tested for antiviral activity against thymidine kinase deficient Varicella zoster virus in human embryonic lung fibroblasts
[8] = tested on: E6SM; experiment: The compound was tested for antiviral activity against thymidine kinase-deficient (TK-HSV-1)virus in E6SM cell line(human embryonic skin-muscle fibroblasts); format: functional
[9] = tested on: HEL; experiment: Tested for antiviral activity against thymidine kinase wild type Varicella zoster virus in human embryonic lung fibroblast; format: functional
[10] = tested on: Staphylococcus hominis; experiment: Tested for the antimicrobial activity as minimum inhibitory concentration against Staphylococcus hominis ATCC 27844; format: functional
[11] = tested on: Escherichia coli; experiment: Tested for the antimicrobial activity as minimum inhibitory concentration against Escherichia coli ATCC 25922; format: functional
[12] = tested on: Klebsiella pneumoniae; experiment: Tested for the antimicrobial activity as minimum inhibitory concentration against Klebsiella pneumoniae ATCC 13883; format: functional
[13] = tested on: Staphylococcus epidermidis; experiment: Tested for the antimicrobial activity as minimum inhibitory concentration against Staphylococcus epidermidis ATCC 12228; format: functional
[14] = tested on: Staphylococcus aureus; experiment: Tested for the antimicrobial activity as minimum inhibitory concentration against Staphylococcus aureus ATCC 6538; format: functional
[15] = tested on: MT4; experiment: The compound was tested for effective concentration required to protect MT-4 cells against the cytopathicity of HIV-1(IIIB); format: functional, cell-based; conditions: Homo sapiens
[16] = tested on: MT4; experiment: The compound was tested for effective concentration required to protect MT-4 cells against the cytopathicity of HIV-2(ROD); format: functional, cell-based; conditions: Homo sapiens
[17] = tested on: MT4; experiment: The compound was tested for cytotoxic concentration required to reduce the viability of MT-4 cells; format: functional; conditions: Homo sapiens
[18] = tested on: HeLa; experiment: Tested for antiviral activity against coxsackie-B4 virus in human epithelial cell line; format: functional
[19] = tested on: Vero; experiment: Tested for cytotoxic activity in African green monkey kidney cells (Vero); format: functional; conditions: Chlorocebus sabaeus
[20] = tested on: Escherichia coli; experiment: Tested for the antimicrobial activity minimum inhibitory concentration) against Escherichia coli; format: functional
[21] = tested on: Vero; experiment: Tested for antiviral activity against coxsackie B-4 virus in African green monkey kidney cell (Vero); format: functional; conditions: Chlorocebus sabaeus
[22] = tested on: HeLa; experiment: Tested for cytotoxic activity in human epithelial cell line (HeLa); format: functional
[23] = tested on: HeLa; experiment: The compound was tested for antiviral activity against VSV-virus in human epithelial cells; format: functional
[24] = tested on: Staphylococcus hominis; experiment: Tested for the antimicrobial activity minimum inhibitory concentration) against Staphylococcus hominis; format: functional
[25] = tested on: Vero; experiment: Tested for antiviral activity against Reo-1 virus in African green monkey kidney cell (Vero); format: functional; conditions: Chlorocebus sabaeus
[26] = tested on: Vero; experiment: Tested for antiviral activity against parainfluenza virus in african green monkey kidney cell (Vero); format: functional; conditions: Chlorocebus sabaeus
[27] = tested on: Vero; experiment: Tested for antiviral activity against Sindbis virus in African green monkey kidney cell (Vero); format: functional; conditions: Chlorocebus sabaeus
[28] = tested on: Klebsiella pneumoniae; experiment: Tested for the antimicrobial activity minimum inhibitory concentration) against Klebsiella pneumoniae; format: functional
[29] = tested on: Vero; experiment: Tested for antiviral activity against Punta toro virus in African green monkey kidney cell (Vero); format: functional; conditions: Chlorocebus sabaeus

Compound: Nc1nc2c(ncn2COCCO)c(=O)[nH]1 [ACYCLOVIR]
- MIC [1]: 0.08 µg/mL (≈ 0.355 µM)
- MIC [2]: 0.08 µg/mL (≈ 0.355 µM)
- MIC [3]: 48 µg/mL (≈ 213 µM)
- MCC [4]: > 50 µg/mL
- MCC [5]: > 400 µg/mL
- MIC [6]: > 400 µg/mL
- MIC [7]: 12.3 µg/mL (≈ 54.6 µM)
- MIC [8]: 48 µg/mL (≈ 213 µM)
- MIC [9]: 1.1 µg/mL (≈ 4.88 µM)

Compound: CN[C@@H]1[C@H](O[C@H]2[C@H](O[C@H]3[C@H](O)[C@@H](O)[C@H](N=C(N)N)[C@@H](O)[C@@H]3N=C(N)N)O[C@@H](C)[C@]2(O)C=O)O[C@@H](CO)[C@H](O)[C@H]1O [STREPTOMYCIN]
- MIC [10]: 2.1 µg/mL (≈ 3.61 µM)
- MIC [11]: 0.6 µg/mL (≈ 1.03 µM)
- MIC [12]: 0.6 µg/mL (≈ 1.03 µM)
- MIC [13]: 2.1 µg/mL (≈ 3.61 µM)
- MIC [14]: 2.1 µg/mL (≈ 3.61 µM)

Compound: Cc1cn([C@H]2C[C@H](N=[N+]=[N-])[C@@H](CO)O2)c(=O)[nH]c1=O [ZIDOVUDINE]
- EC50 [15]: 6.4 nM
- EC50 [16]: 6 nM
- CC50 [17]: > 500000 nM

Compound: NC(=O)c1ncn([C@@H]2O[C@H](CO)[C@@H](O)[C@H]2O)n1 [RIBAVIRIN]
- MIC [18]: 48 µg/mL (≈ 197 µM)
- MCC [19]: > 400 µg/mL
- MIC [3]: 400 µg/mL (≈ 1640 µM)
- MIC [20]: > 400 µg/mL
- MIC [21]: 240 µg/mL (≈ 983 µM)
- MCC [22]: > 400 µg/mL
- MIC [23]: 240 µg/mL (≈ 983 µM)
- MIC [24]: > 400 µg/mL
- MIC [25]: 80 µg/mL (≈ 328 µM)
- MCC [26]: 48 µg/mL
- MIC [27]: 80 µg/mL (≈ 328 µM)
- MCC [5]: > 400 µg/mL
- MIC [28]: > 400 µg/mL
- MIC [6]: 240 µg/mL (≈ 983 µM)
- MIC [29]: 16 µg/mL (≈ 65.5 µM)
